pIC50: −log10 of the molar value. Active and inactive are the calls of the source. The rule behind the calls is not given here.
Tests used:
[1] = molecular target: T1, Receptor-type tyrosine-protein kinase FLT3 (Homo sapiens, UniProt P36888)
T1 sequence (P36888 whole entry): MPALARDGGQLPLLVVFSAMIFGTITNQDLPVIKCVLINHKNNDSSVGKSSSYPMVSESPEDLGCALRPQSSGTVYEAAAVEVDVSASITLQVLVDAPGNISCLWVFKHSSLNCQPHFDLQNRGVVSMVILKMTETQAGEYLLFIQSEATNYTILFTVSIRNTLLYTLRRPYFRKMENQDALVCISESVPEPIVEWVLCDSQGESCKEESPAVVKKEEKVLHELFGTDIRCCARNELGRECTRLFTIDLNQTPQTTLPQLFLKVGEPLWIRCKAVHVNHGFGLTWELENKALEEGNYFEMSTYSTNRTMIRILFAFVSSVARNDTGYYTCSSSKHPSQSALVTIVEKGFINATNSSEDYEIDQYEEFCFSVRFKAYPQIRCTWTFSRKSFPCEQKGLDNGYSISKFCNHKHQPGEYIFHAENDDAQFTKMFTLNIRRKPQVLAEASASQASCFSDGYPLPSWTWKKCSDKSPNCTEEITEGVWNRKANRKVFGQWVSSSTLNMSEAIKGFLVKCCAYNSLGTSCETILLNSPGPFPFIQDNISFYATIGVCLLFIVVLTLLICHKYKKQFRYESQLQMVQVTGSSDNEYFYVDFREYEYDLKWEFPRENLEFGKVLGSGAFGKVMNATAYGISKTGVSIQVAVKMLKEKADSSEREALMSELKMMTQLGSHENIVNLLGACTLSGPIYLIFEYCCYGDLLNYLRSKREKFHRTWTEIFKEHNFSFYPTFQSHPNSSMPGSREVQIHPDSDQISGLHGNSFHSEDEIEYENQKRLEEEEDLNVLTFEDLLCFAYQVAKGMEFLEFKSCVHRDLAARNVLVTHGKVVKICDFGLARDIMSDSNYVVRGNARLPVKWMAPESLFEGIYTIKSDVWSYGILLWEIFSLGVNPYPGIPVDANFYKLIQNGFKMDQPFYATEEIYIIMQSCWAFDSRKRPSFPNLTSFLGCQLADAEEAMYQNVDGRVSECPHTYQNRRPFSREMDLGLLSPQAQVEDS

[2] = test system: MV4-11; assay: cells; conditions: Homo sapiens, MV4-11, 72 h
[3] = Clearance in ICR mouse at 10 mg/kg, iv or po measured up to 1440 mins by LC-MS/MS analysis; assay type: ADME, organism-based; conditions: in vivo
[4] = Oral bioavailability in ICR mouse at 10 mg/kg measured up to 1440 mins by LC-MS/MS analysis; assay type: ADME, organism-based; conditions: in vivo
[5] = Half-life in ICR mouse at 10 mg/kg, iv or po measured up to 1440 mins by LC-MS/MS analysis; assay type: ADME, organism-based; conditions: in vivo
[6] = test system: MV4-11; assay: Antiproliferative activity against human MV4-11 cells assessed as growth inhibition after 72 hrs; assay type: functional
[7] = Toxicity in BALB/c nu/nu mouse xenografted with human MV4-11 cells assessed as body weight loss at 20 mg/kg, po administered for 21 days; assay type: organism-based; conditions: in vivo, 504 h, time 21 day
[8] = Cmax in ICR mouse at 10 mg/kg, iv or po measured up to 1440 mins by LC-MS/MS analysis; assay type: ADME, organism-based; set-up: dose 10 mg/kg, time <=1440; conditions: in vivo
[9] = test system: MV4-11; assay: Antitumor activity against human MV4-11 cells xenografted in BALB/c nu/nu mouse assessed as reduction in tumor volume at 20 mg/kg, po administered once daily for 21 days measured twice daily during compound dosing; assay type: functional, organism-based; conditions: time 21.0 day
[10] = AUClast in ICR mouse at 10 mg/kg, iv or po measured up to 1440 mins by LC-MS/MS analysis; assay type: ADME, organism-based; set-up: dose 10 mg/kg, time <=1440; conditions: in vivo
[11] = test system: MOLM-14; assay: cells; conditions: Homo sapiens
[12] = test system: HCT-116; assay: cells; conditions: Homo sapiens, HCT-116, read-out: INH
[13] = test system: MOLM-14; assay: cells; conditions: Homo sapiens; remark: listed apart in the source
[14] = test system: MOLM-14; assay: cells; conditions: Homo sapiens; remark: listed apart in the source
[15] = test system: A549; assay: cells; conditions: Homo sapiens, A549, read-out: INH
[16] = test system: MDA-MB-231; assay: cells; conditions: Homo sapiens, MDA-MB-231, read-out: INH
[17] = test system: PC-3; assay: cells; conditions: Homo sapiens, PC-3, read-out: INH
[18] = test system: K562; assay: Antiproliferative activity against human K562 cells assessed as cell growth inhibition by WST assay; assay type: functional
[19] = test system: SK-OV-3; assay: cells; conditions: Homo sapiens, SK-OV-3, read-out: INH
[20] = test system: MV4-11; assay: Antiproliferative activity against human MV4-11 cells assessed as cell growth inhibition by Celltiter-Glo luminescent assay; assay type: functional
[21] = test system: HepG2; assay: cells; conditions: Homo sapiens
[22] = test system: MOLM-14; assay: cells; conditions: Homo sapiens; remark: listed apart in the source

| pIC50 [1] | GI50 [2] [nM] | SMILES | also measured |
| --- | --- | --- | --- |
| 7.88 | 7.01 | Cl.O=C1Nc2ccc([N+](=O)[O-])cc2/C1=C1/Nc2ccccc2/C1=N\OCCN1CCNCC1 | clearance [3]: 108 mL/min/kg; bioavailability [4]: 1.33% |
|  | 133 | O=C1Nc2ccc([N+](=O)[O-])cc2/C1=C1/Nc2ccc(O)cc2/C1=N\O |  |
| 6.49 | 470 | O=C1Nc2ccc([N+](=O)[O-])cc2/C1=C1/Nc2ccc(O)cc2/C1=N\OCCBr |  |
| 8.68 | 20 | COc1ccc2c(c1)/C(=C1/Nc3ccccc3/C1=N\OCCN1CCN(C)CC1)C(=O)N2 |  |
| 8.07 | 95.3 | Cl.NCCO/N=C1/C(=C2/C(=O)Nc3ccc([N+](=O)[O-])cc32)Nc2ccc(O)cc21 | bioavailability [4]: 0% |
| 6.89 | 138 | O=C1Nc2ccccc2/C1=C1/Nc2ccccc2/C1=N\OCCN1CCCCC1 |  |
| 7.80 | 8.3 | Cl.O=C1Nc2ccc(F)cc2/C1=C1/Nc2ccc(F)cc2/C1=N\OCCN1CCNCC1 | clearance [3]: 28.1 mL/min/kg; half-life [5]: 3.4 h; bioavailability [4]: 16.7% |
| 7.68 | 15.1 | O=C1Nc2ccccc2/C1=C1/Nc2ccccc2/C1=N\OCCNC1CCNCC1 |  |
| 6.59 | 212 | O=C1Nc2ccc(F)cc2/C1=C1/Nc2ccccc2/C1=N\OCCN1CCCC1 |  |
| 7.51 | 118 | CN1CCN(CCO/N=C2/C(=C3/C(=O)Nc4ccc([N+](=O)[O-])cc43)Nc3ccc(F)cc32)CC1 |  |
| 7.91 | 26.5 | Cl.O=C1Nc2ccc([N+](=O)[O-])cc2/C1=C1/Nc2ccc(O)cc2/C1=N\OCCN1CCNCC1 | clearance [3]: 70.4 mL/min/kg; bioavailability [4]: 0% |

Further lines, the molecule ahead of its results:

| SMILES | pIC50 [1] | GI50 [2] [nM] | also measured |
| --- | --- | --- | --- |
| O=C1Nc2ccc([N+](=O)[O-])cc2/C1=C1/Nc2ccc(O)cc2/C1=N\OCCN1CCOCC1 | 6.46 | 100 |  |
| O=C1Nc2ccc(F)cc2/C1=C1/Nc2ccc(F)cc2/C1=N\OCCN1CCCC1 | 6.94 | 634 |  |
| O=C1Nc2ccc([N+](=O)[O-])cc2/C1=C1/Nc2ccc(F)cc2/C1=N\OCCN1CCNCC1 | 7.56 | 10.2 |  |
| O=C1Nc2ccc(OC(F)(F)F)cc2/C1=C1/Nc2ccccc2/C1=N\OCCN1CCNCC1 | 7.40 | 17 |  |
| CN1CCN(CCO/N=C2/C(=C3/C(=O)Nc4ccc([N+](=O)[O-])cc43)Nc3ccc(O)cc32)CC1 | 7.72 | 50 |  |
| O=C1Nc2ccc(F)cc2/C1=C1/Nc2ccccc2/C1=N\OCCNC1CCNCC1 | 8.02 | 11.9 |  |
| CN1CCN(CCO/N=C2/C(=C3/C(=O)Nc4ccc(OC(F)(F)F)cc43)Nc3ccccc32)CC1 | 8.25 | 7 |  |
| O=C1Nc2ccccc2/C1=C1/Nc2ccccc2/C1=N\OCCN1CCCC1 | 7.38 | 104 |  |
| COC(=O)c1ccc2c(c1)/C(=C1/Nc3ccccc3/C1=N\OCCN1CCNCC1)C(=O)N2 |  |  | bioavailability [4]: 1.43%; GI50 [6]: 1 nM |
| CN1CCN(CCO/N=C2/C(=C3/C(=O)Nc4ccc(F)cc43)Nc3ccc(F)cc32)CC1 | 7.57 | 31.5 |  |
| O=C1Nc2ccc(F)cc2/C1=C1/Nc2ccccc2/C1=N\OCCN1CCCCC1 | 6.85 | 263 |  |
| CN1CCN(CCO/N=C2/C(=C3/C(=O)Nc4ccccc43)Nc3ccccc32)CC1 | 8.03 | 54.8 |  |
| CN1CCN(CCO/N=C2/C(=C3/C(=O)Nc4ccc(F)cc43)Nc3ccccc32)CC1 | 8.48 | 11.1 |  |
| O=C1Nc2ccc(F)cc2/C1=C1/Nc2ccc(F)cc2/C1=N\OCCN1CCCCC1 | 7.35 | 105 |  |
| Cl.O=C1Nc2ccc(F)cc2/C1=C1/Nc2ccc(F)cc2/C1=N\OCCNC1CCNCC1 | 7.94 | 8.47 | clearance [3]: 231 mL/min/kg; half-life [5]: 9.2 h; bioavailability [4]: 15.3% |
| Cl.O=C1Nc2ccccc2/C1=C1/Nc2ccccc2/C1=N\OCCN1CCNCC1 | 8.57 |  | Activity [7]: Non-Toxic; Cmax [8]: 69.7 ng/mL; Activity [9]: Active; bioavailability [4]: 51%; AUC(0-t) at 24 h [10]: 1200 ng·h/mL |
| CCc1nc(C(N)=O)c(Nc2ccc(N3CCC(N4CCN(C)CC4)CC3)c(OC)c2)nc1NC1CCOCC1 [GILTERITINIB] |  |  | GI50 [11]: 5.24 nM; inhibition at 1 µM [12]: 45.1%; GI50 [13]: 3.29 nM; GI50 [14]: 4.94 nM; inhibition at 1 µM [15]: 4.05%; inhibition at 1 µM [16]: 42.1%; inhibition at 1 µM [17]: 41.8%; GI50 [18]: 1010 nM; inhibition at 1 µM [19]: 23.3%; GI50 [20]: 0.9 nM; GI50 [21]: 2200 nM; GI50 [22]: 1.91 nM |
| O=C1Nc2ccc(F)cc2/C1=C1/Nc2ccc(F)cc2/C1=N\OCCN1CCOCC1 | 7.01 | 116 |  |
| COc1ccc2c(c1)/C(=C1/Nc3ccccc3/C1=N\OCCN1CCNCC1)C(=O)N2 | 7.91 | 22 |  |

— ChEMBL document CHEMBL4765285, “Discovery of orally active indirubin-3'-oxime derivatives as potent type 1 FLT3 inhibitors for acute myeloid leukemia” (Eur J Med Chem, 2020)
